Values quoted from earlier work in article PMC9851200, “Multiparameter phenotypic screening for endogenous TFEB and TFE3 translocation identifies novel chemical series modulating lysosome function” (Autophagy, 2022).

Legend:
Set-up in all cases: method as in original PKIS2 published data
[1] = biological target: kinases (KINOMEscan panel) (Homo sapiens, UniProt Q15569); settings: TESK1; Published KINOMEscan; ref original PKIS2 published data; cited from earlier work
[2] = biological target: T1, kinases (KINOMEscan panel) (Homo sapiens, UniProt Q6XUX3); settings: DSTYK; Published KINOMEscan; ref original PKIS2 published data; cited from earlier work
T1 sequence (Q6XUX3 1-929): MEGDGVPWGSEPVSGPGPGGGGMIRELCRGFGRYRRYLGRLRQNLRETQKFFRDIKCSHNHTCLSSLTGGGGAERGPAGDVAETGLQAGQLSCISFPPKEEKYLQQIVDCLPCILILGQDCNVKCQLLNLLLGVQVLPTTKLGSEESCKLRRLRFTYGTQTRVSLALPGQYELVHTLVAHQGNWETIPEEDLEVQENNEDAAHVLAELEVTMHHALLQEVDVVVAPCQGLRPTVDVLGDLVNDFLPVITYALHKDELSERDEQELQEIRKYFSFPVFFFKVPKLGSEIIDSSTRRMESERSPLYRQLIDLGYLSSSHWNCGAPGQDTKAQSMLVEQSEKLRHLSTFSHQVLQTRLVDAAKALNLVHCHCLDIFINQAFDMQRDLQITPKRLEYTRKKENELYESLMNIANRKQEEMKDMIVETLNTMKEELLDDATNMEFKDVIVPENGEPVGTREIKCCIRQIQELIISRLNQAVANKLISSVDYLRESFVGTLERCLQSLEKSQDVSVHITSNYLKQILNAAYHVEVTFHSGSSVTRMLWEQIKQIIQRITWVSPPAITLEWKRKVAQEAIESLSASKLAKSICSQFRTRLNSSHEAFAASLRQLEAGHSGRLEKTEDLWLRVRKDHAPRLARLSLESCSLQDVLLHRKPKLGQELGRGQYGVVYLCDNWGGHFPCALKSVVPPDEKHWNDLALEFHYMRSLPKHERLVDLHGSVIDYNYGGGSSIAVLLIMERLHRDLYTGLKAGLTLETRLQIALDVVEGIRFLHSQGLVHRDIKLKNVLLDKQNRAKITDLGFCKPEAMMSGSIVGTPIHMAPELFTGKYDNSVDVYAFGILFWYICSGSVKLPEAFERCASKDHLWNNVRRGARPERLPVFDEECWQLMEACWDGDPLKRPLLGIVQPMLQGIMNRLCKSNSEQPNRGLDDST

[3] = biological target: T2, kinases (KINOMEscan panel) (Homo sapiens, UniProt Q12851); settings: kinase MAP4K2; Published KINOMEscan; ref original PKIS2 published data; cited from earlier work
T2 sequence (Q12851 1-820): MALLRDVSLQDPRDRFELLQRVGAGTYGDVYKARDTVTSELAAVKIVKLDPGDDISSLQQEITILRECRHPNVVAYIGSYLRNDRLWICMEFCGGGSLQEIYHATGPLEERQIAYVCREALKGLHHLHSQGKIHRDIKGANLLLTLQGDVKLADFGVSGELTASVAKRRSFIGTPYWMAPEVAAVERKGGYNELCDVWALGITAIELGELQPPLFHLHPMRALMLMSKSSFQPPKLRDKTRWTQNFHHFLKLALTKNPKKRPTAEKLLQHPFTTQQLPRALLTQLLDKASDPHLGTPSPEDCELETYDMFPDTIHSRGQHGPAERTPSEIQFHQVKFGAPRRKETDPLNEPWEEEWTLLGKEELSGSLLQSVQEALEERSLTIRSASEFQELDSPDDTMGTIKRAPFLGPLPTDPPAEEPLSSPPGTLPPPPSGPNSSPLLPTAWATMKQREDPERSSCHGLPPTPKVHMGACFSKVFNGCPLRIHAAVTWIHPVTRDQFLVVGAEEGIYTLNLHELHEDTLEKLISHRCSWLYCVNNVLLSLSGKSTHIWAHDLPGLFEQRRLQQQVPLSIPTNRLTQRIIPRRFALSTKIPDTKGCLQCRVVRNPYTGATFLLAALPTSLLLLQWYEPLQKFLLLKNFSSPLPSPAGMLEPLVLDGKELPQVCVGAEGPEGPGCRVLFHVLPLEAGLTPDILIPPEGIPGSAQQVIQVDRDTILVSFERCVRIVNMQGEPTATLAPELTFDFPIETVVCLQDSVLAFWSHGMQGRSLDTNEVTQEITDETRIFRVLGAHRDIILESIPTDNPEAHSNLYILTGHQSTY

[4] = biological target: kinases (KINOMEscan panel) (Homo sapiens, UniProt Q9P1W9); settings: PIM2; Published KINOMEscan; ref original PKIS2 published data; cited from earlier work
Sequence of kinases (KINOMEscan panel) (Homo sapiens, UniProt Q9P1W9) (Q9P1W9 whole entry): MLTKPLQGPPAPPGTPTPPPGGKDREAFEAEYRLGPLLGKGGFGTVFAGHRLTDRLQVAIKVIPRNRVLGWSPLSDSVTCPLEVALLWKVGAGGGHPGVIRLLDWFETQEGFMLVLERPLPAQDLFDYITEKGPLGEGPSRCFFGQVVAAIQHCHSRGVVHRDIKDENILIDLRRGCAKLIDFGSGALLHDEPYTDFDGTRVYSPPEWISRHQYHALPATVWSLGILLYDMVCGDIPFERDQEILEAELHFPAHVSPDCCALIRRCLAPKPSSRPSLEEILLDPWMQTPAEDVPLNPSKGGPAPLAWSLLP

[5] = biological target: T3, kinases (KINOMEscan panel) (Homo sapiens, UniProt Q8WTQ7); settings: kinase GRK7; Published KINOMEscan; ref original PKIS2 published data; cited from earlier work
T3 sequence (Q8WTQ7 1-553): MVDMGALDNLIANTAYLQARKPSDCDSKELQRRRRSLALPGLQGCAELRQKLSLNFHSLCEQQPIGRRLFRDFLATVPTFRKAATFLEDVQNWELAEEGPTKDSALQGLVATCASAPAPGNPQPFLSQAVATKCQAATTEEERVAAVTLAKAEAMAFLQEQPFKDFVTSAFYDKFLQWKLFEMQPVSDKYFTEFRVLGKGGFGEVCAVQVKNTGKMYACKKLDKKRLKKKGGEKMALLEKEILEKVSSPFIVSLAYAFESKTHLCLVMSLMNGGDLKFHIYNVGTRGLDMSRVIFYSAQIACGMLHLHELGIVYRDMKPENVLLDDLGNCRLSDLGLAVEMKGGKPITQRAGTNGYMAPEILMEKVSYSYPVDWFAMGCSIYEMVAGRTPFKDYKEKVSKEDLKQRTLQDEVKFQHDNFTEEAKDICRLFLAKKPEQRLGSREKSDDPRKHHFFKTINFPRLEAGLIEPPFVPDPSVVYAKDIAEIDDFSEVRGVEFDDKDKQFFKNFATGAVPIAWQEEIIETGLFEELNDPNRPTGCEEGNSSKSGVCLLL

[6] = biological target: kinases (KINOMEscan panel) (Homo sapiens, UniProt P16591); settings: FER; Published KINOMEscan; ref original PKIS2 published data; cited from earlier work
Sequence of kinases (KINOMEscan panel) (Homo sapiens, UniProt P16591) (P16591 whole entry): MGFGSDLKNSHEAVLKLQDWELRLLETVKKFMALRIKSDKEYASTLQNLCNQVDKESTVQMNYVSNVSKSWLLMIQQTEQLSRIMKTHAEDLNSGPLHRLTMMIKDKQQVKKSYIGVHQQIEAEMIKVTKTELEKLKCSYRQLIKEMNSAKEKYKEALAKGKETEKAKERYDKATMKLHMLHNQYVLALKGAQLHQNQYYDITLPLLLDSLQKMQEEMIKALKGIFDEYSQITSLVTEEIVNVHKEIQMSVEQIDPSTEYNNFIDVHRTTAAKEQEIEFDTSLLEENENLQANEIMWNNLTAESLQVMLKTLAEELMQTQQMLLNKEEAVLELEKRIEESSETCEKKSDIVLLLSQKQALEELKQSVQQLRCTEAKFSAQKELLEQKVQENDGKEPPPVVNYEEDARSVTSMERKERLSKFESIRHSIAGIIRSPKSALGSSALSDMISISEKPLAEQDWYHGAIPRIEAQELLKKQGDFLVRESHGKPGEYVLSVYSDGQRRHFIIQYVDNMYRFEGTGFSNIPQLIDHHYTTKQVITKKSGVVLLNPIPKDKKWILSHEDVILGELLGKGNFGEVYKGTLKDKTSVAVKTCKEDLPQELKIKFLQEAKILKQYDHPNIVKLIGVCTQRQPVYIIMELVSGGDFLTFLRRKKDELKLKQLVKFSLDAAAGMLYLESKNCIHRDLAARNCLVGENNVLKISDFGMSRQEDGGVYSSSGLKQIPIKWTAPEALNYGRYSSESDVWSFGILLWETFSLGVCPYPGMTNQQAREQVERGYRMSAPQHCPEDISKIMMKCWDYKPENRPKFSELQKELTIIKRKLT

[7] = biological target: kinases (KINOMEscan panel) (Homo sapiens, UniProt P08631); settings: kinase HCK; Published KINOMEscan; ref original PKIS2 published data; cited from earlier work
Sequence of kinases (KINOMEscan panel) (Homo sapiens, UniProt P08631) (P08631 whole entry): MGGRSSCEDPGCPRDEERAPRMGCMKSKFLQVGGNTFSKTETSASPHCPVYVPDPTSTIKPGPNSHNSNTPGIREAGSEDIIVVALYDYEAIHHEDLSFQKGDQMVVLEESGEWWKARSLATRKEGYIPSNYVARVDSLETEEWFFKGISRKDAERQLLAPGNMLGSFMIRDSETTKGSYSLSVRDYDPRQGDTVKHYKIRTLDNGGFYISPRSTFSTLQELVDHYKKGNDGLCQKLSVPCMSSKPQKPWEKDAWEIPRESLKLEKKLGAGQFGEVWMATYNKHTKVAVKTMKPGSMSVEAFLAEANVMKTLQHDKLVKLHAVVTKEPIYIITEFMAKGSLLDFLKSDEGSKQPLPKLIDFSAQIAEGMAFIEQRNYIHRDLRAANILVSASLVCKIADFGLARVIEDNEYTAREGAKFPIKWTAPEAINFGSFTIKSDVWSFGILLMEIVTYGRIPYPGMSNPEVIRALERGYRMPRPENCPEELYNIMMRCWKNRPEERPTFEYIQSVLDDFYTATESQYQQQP

Sequence of kinases (KINOMEscan panel) (Homo sapiens, UniProt Q15569) (Q15569 whole entry): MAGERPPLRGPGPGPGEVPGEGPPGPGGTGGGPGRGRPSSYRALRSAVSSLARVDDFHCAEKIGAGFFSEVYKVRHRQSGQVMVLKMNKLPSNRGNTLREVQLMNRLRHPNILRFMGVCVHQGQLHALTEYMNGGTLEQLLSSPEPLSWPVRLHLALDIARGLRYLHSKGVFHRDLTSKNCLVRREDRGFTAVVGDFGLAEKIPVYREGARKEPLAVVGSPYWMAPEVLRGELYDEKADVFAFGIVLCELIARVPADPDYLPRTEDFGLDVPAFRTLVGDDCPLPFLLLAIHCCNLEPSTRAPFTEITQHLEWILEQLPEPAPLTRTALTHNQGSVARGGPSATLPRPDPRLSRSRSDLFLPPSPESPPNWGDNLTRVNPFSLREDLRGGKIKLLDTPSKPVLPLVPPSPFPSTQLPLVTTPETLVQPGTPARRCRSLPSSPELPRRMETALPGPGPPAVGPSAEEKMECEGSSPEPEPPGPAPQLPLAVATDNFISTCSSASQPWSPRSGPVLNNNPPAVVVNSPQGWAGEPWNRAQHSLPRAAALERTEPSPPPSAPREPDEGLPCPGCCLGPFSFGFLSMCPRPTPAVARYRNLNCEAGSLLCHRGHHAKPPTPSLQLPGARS

Structure (SMILES): Cc1cccc(-c2nc(Nc3ccncc3)c3ccccc3n2)n1 [NK215]
- KINOMEscan TESK1 [1]: 14
- KINOMEscan DSTYK [2]: 0
- KINOMEscan MAP4K2 [3]: 0
- KINOMEscan PIM2 [4]: 18
- KINOMEscan GRK7 [5]: 0
- KINOMEscan FER [6]: 0
- KINOMEscan HCK [7]: 11
